Earlier results, collected in patent US6387352B1, “Mouthwash compositions” (Erling Johansen, priority 1996, dated 2002).

Settings: compared to similar solutions excluding fluoride

SMILES: F [fluoride]
- increase in hardness of dental enamel on addition of fluoride to calcium/phosphate solution: (about) four times increase in hardness
